Measurements as given in patent US12521375B2, “Pharmaceutical composition for treating fatty liver disease” (Shionogi & Co., Ltd., priority 2020, dated 2026).

Molecular target: recombinant human ACC1 (Homo sapiens (Human), UniProt Q13085)
Assay: Measurement of inhibitory activity of human ACC1
Type: biochemical
Conditions: read-out: IC50 hACC1
Text: A cDNA encoding human ACC1 protein (1 amino acid residue to 2346 amino acid residues from the N-terminus) was cloned from a human liver cDNA library (BioChain Institute Inc.), myc tag and His-tag sequences were introduced at the 3′ end, and then inserted into pIEXBAC3 (Novagen). A recombinant baculovirus was produced in accordance with the protocol for FlashBACGOLD (Oxford Expression Technologies Ltd.), and Sf-9 cells were infected therewith to express human ACC1 protein. The recovered cells were crushed, filtered through a filter, and then subjected to Ni affinity chromatography and anion exchange chromatography. Fractions containing human ACC1 protein were collected to obtain recombinant human ACC1.
The recombinant human ACC1 and the recombinant human ACC2 obtained from the above Preparation Examples were preincubated in an assay buffer (50 mM HEPES-KOH (pH 7.4), 10 mM magnesium chloride, 6 to 10 mM potassium citrate, 4 mM reduced glutathione, and 1.5 mg/ml bovine serum albumin) for 1 hour. Then, 5 μL of the pre-incubated enzyme solution and 5 μL of a substrate solution (50 mM HEPES-KOH (pH 7.4), 1 mM ATP, 0.8 mM acetyl-CoA, and 25 to 50 mM potassium bicarbonate) were added to a 384-well microplate into which 0.2 μL of each of solutions of the compound of the present invention (DMSO) had been dispensed, and the mixture was centrifuged and shaken, and then incubated in a wet box at room temperature for 1 to 3 hours. After incubation, the enzymatic reaction was stopped by addition of EDTA, and then the compound was co-crystallized with an α-cyano-4-hydroxy cinnamic acid (CHCA) matrix on a MALDI target plate, and measurement was performed in a reflector negative mode using a matrix-assisted laser desorption ionization-time-of-flight mass spectrometer (MALDI-TOF MS). Deprotonated ions of the substrate acetyl-CoA (AcCoA) and the reaction product malonyl-CoA (MalCoA) were detected, and the intensity of each signal was used to calculate a conversion rate to malonyl-CoA […], i.e., intensity of [MalCoA-H]-/(intensity of [MalCoA-H]-+intensity of [AcCoA-H]-). […] The potassium citrate concentration in the assay buffer, the potassium bicarbonate concentration in the substrate solution, and the incubation time were adjusted within the above concentrations or reaction times for each lot of the enzyme to be used.

IC50 [µM]	SMILES
6.9	C[C@@H](CO[C@H]1CC[C@H](Oc2nc3c(F)cc(OC4CC4)cc3n2C)CC1)NC(N)=O [Compound I-12]
0.91	CC(=O)N[C@@H](C)CC[C@H]1OC[C@H](Oc2nc3c(F)cc(OC4CC4)cc3n2C)CO1 [Compound I-13]
